Converted amounts (≈) assume the structure as drawn. Like-named read-outs stand apart in the source and are kept apart here.
How the values were obtained:
[1] = test system: delayed-type hypersensitivity (DTH); assay: Suppressive effect on delayed-type hypersensitivity (DTH) in mouse, oral; assay type: in vivo, mouse (CDF1); settings: oral once a day, 0~4th day
Procedure: CDF1 mice were immunized by intravenously injecting sheep red blood cells (10^5 cells/mouse). On the 4th day after the immunization, sheep red blood cells (10^8 cells/mouse) were subcutaneously injected into the footpad of mice for the elicitation to cause a delayed-type hypersensitivity. Test compound was orally administered to the mice once a day from the 0 th day to the 4 th day after the immunization. On the 5th day after the elicitation, the thickness of the mouse footpad was measured to estimate the suppressive effect of the test compound on DTH. The suppressive effect of the test compound was evaluated in terms of the inhibition rate (%) as calculated according to the following equation:
Inhibition rate (%)=100-(T/C×100)
wherein T denotes the thickness of the footpad when the test compound was administered, but C denotes the thickness of the footpad when no test compounnd was administered.

[2] = test system: spleen cells (T cells activated by Concanavalin A); assay: Inhibitory activity against blastogenesis and proliferation of spleen cells caused by mitogen (Con A); assay type: cell-based, mouse (CDF1); settings: for IC50: read-out: IC50 (inhibition of blastogenesis and proliferation of spleen lymphocyte caused by Con A); for inhibition at 0.39 µg/mL: 0.39 μg/ml test compound; for inhibition at 6.25 µg/mL: 6.25 μg/ml test compound; for inhibition at 25 µg/mL: 25 μg/ml test compound; for inhibition at 100 µg/mL: 100 μg/ml test compound; for activity inhibitory to the reaction of proliferation of mouse spleen cells activated with Concanavalin A: in vitro, result in words; for inhibition at 1.56 µg/mL: 1.56 μg/ml test compound
[3] = test system: nylon wool-passed cells of spleen cells (responder cell; T cells); assay: Inhibitory activity to the mixed lymphocyte culture reaction; assay type: cell-based, rat (Fischer F344 responder; WKY stimulator); settings: for inhibition at 1.56 µg/mL / inhibition at 0.1 µg/mL / inhibition at 0.39 µg/mL / inhibition at 6.25 µg/mL / inhibition at 25 µg/mL / inhibition at 100 µg/mL / IC50: Rattus norvegicus, T-cell; for inhibition at 1.56 µg/mL / inhibition at 0.1 µg/mL / inhibition at 0.39 µg/mL / inhibition at 6.25 µg/mL / inhibition at 25 µg/mL / inhibition at 100 µg/mL: read-out: Inhibition rate; for inhibition at 0.1 µg/mL: 0.10 μg/ml test compound; for inhibition at 0.39 µg/mL: 0.39 μg/ml test compound; for inhibition at 6.25 µg/mL: 6.25 μg/ml test compound; for inhibition at 25 µg/mL: 25 μg/ml test compound; for inhibition at 100 µg/mL: 100 μg/ml test compound; for IC50: 120 hours, 3H-thymidine incorporation, read-out: IC50 (inhibition of mixed lymphocyte culture reaction); for activity to inhibit the proliferation of the T cells (responder cell) in mixed lymphocyte culture reaction: in vitro, result in words
[4] = test system: Mouse leukemia L-1210; assay: Inhibitory activity on proliferation of cancer cells; assay type: cell-based; settings: L1210
[5] = test system: Mouse leukemia P388D1; assay: as above; assay type: cell-based
[6] = test system: Mouse leukemia EL-4; assay: as above; assay type: cell-based; settings: EL4
[7] = test system: Mouse melanoma B-16; assay: as above; assay type: cell-based; settings: B16
[8] = test system: Human Lymphoma Jurkat; assay: as above; assay type: cell-based
[9] = test system: Candida tropicalis F-1; assay: MIC, agar plate dilution method; assay type: cell-based; settings: F1, 27° C., 42 hours, nutrient agar containing glucose
[10] = test system: Candida pseudotropicalis F-2; assay: MIC, agar plate dilution method; assay type: cell-based; settings: Kluyveromyces marxianus, F2; 27° C., 42 hours, nutrient agar containing glucose
[11] = test system: Candida albicans 3147; assay: MIC, agar plate dilution method; assay type: cell-based; settings: 27° C., 42 hours, nutrient agar containing glucose
[12] = test system: Candida Yu-1200; assay: MIC, agar plate dilution method; assay type: cell-based; settings: YU1200, 27° C., 42 hours, nutrient agar containing glucose
[13] = test system: Candida krusei F-5; assay: MIC, agar plate dilution method; assay type: cell-based; settings: Pichia kudriavzevii, F5; 27° C., 42 hours, nutrient agar containing glucose
[14] = test system: Saccharomyces cerevisiae F-7; assay: MIC, agar plate dilution method; assay type: cell-based; settings: F7, 27° C., 42 hours, nutrient agar containing glucose
[15] = test system: Cochliobolus miyabeanus; assay: MIC, agar plate dilution method; assay type: cell-based; settings: Bipolaris oryzae; 27° C., 42 hours, nutrient agar containing glucose
Procedure: (§1) Delaminomycins A, B, C, A2, B2 and C2 according to this invention further have an antibacterial activity against a variety of bacteria. The minimum growth inhibitory concentrations (MIC) (μg/ml) of the novel antibiotics of this invention on various bacteria and fungi as measured by the agar plate dilution method are shown in Table 5a, Table 5b, Table 5c and Table 5d below.
(§2) Evaluated after culturing at 27° C. for 42 hours in nutrient agar
(§3) medium containing glucose.

[16] = test system: Xanthomonas citri; assay: MIC, agar plate dilution method; assay type: cell-based; settings: 27° C., 42 hours, nutrient agar containing glucose
Procedure: as §1, §2, §3

[17] = test system: Piricularia oryzae; assay: microbe, parasite or virus in culture; assay type: cell-based; settings: 42 h
[18] = test system: Pellicularia sasakii; assay: MIC, agar plate dilution method; assay type: cell-based; settings: 27° C., 42 hours, nutrient agar containing glucose
[19] = test system: Aspergillus niger F-16; assay: MIC, agar plate dilution method; assay type: cell-based; settings: F16, 27° C., 42 hours, nutrient agar containing glucose
[20] = test system: Trichophyton asteroides 429; assay: MIC, agar plate dilution method; assay type: cell-based; settings: 27° C., 42 hours, nutrient agar containing glucose
[21] = test system: Trichophyton mentagrophytes F-15 (833); assay: MIC, agar plate dilution method; assay type: cell-based; settings: 27° C., 42 hours, nutrient agar containing glucose
[22] = Solubility; settings: result in words; for Solubility: various solvents
[23] = Absorption into the digestive tracts on oral administration; settings: result in words
[24] = test system: Gram-positive bacteria; assay: Antibacterial activity to Gram-positive bacteria; assay type: cell-based; settings: result in words
Source text: as §1

[25] = Mus musculus, T-cell, read-out: Inhibition rate

SMILES | Inhibition rate (DTH footpad thickness) ([1]; 2.0 mg/mouse) | IC50 ([2]; Mus musculus, T-cell) | inhibition at 0.39 µg/mL [2, 25] | inhibition at 6.25 µg/mL [2, 25] | inhibition at 25 µg/mL [2, 25] | inhibition at 100 µg/mL [2, 25] | activity inhibitory to the reaction of proliferation of mouse spleen cells activated with Concanavalin A [2] | inhibition at 0.1 µg/mL [3] | inhibition at 0.39 µg/mL [3] | inhibition at 6.25 µg/mL [3] | inhibition at 25 µg/mL [3] | inhibition at 100 µg/mL [3] | IC50 [3] | activity to inhibit the proliferation of the T cells (responder cell) in mixed lymphocyte culture reaction [3] | IC50 [4] | IC50 [5] | IC50 [6] | Solubility [22] | Solubility in water [22] | absorption into the digestive tracts / oral absorption [23] | further results
CCC(OS(=O)(=O)O)C(C)/C=C/C=C/C1CC2C=CC3CC(C)CC(C)C3C2(C)C(=O)C12C(=O)NC(O)C2=O (stereo not drawn) | 56.3% | – | – | – | – | – | – | – | – | – | – | – | – | – | – | – | – | – | – | – | Inhibition rate (DTH footpad thickness) ([1]; 0.5 mg/mouse): -0.7%; Inhibition rate (DTH footpad thickness) ([1]; 8.0 mg/mouse): 85.2%
CCC(OS(=O)(=O)O)C(C)/C=C/C=C/C1CC2C=CC3CC(C)CC(C)C3C2(C)C(=O)C12C(=O)NC(OC)C2=O (stereo not drawn) | 40.2% | – | – | – | – | – | – | – | – | – | – | – | – | – | – | – | – | – | – | – | –
CCC(OS(=O)(=O)O)C(C)/C=C/C=C/C1CC2C=CC3CC(C)CC(C)C3C2(C)C(=O)C12C(=O)CNC2=O (stereo not drawn) | 35.4% | – | – | – | – | – | – | – | – | – | – | – | – | – | – | – | – | – | – | – | –
CCC(O)C(C)/C=C/C=C/C(O)CC1C=CC2CC(C)CC(C)C2C1(C)C(=O)C1C(=O)NC(OC)C1=O (stereo not drawn) [Delaminomycin B] | – | 4 µg/mL (≈ 7.76 µM) | 0% | 77% | 69% | 70% | exhibit an activity inhibitory to the reaction of proliferation of mouse spleen cells | 12.1% | 27.9% | 95.1% | 95% | 93.2% | 1.1 µg/mL (≈ 2.13 µM) | have an activity to inhibit the reaction of proliferation of the T cells | 30 µg/mL (≈ 58.2 µM) | 13.3 µg/mL (≈ 25.8 µM) | 11.1 µg/mL (≈ 21.5 µM) | soluble in methanol but slightly soluble or insoluble in water, acetone, ethyl ether and n-hexane | barely soluble in water | hardly absorbed into the digestive tracts | inhibition at 1.56 µg/mL [3]: 58.4%; IC50 [7]: > 100 µg/mL; IC50 [8]: 8.2 µg/mL (≈ 15.9 µM); MIC [9]: > 100 µg/mL; MIC [10]: > 100 µg/mL; MIC [11]: > 100 µg/mL; MIC [12]: > 100 µg/mL; MIC [13]: > 100 µg/mL; MIC [14]: > 100 µg/mL; MIC [15]: > 100 µg/mL; MIC [16]: > 100 µg/mL; MIC [17]: > 100 µg/mL; MIC [18]: > 50 µg/mL; MIC [19]: > 100 µg/mL; MIC [20]: > 100 µg/mL; MIC [21]: > 100 µg/mL
CCC(O)C(C)/C=C/C=C/C1CC2C=CC3CC(C)CC(C)C3C2(C)C(=O)C12C(=O)CNC2=O (stereo not drawn) [Delaminomycin C2] | 25.7% | 1.6 µg/mL (≈ 3.42 µM) | 0% | 84% | 85% | 93% | exhibit an activity inhibitory to the reaction of proliferation of mouse spleen cells | -7% | -6% | -1% | 29% | 99% | 37.9 µg/mL (≈ 81 µM) | have an activity to inhibit the reaction of proliferation of the T cells | 3.6 µg/mL (≈ 7.7 µM) | – | – | Soluble in methanol, ethyl acetate and chloroform but slightly soluble or insoluble in n-hexane and water | barely soluble in water | hardly absorbed into the digestive tracts | inhibition at 0.1 µg/mL ([2]; Mus musculus, T-cell, 0.1 μg/ml test compound, read-out: Inhibition rate): 0%; inhibition at 1.56 µg/mL [2, 25]: 49%; inhibition at 1.56 µg/mL ([3]; 1.56 μg/ml test compound): 1%; antibacterial activity to Gram-positive bacteria [24]: antibacterial activity to Gram-positive bacteria
CCC(O)C(C)/C=C/C=C/C(O)CC1C=CC2CC(C)CC(C)C2C1(C)C(=O)C1C(=O)CNC1=O (stereo not drawn) [Delaminomycin C] | – | 1 µg/mL (≈ 2.06 µM) | 1% | 75% | 76% | 76% | exhibit an activity inhibitory to the reaction of proliferation of mouse spleen cells | 19.5% | 41.6% | 97.3% | 97.6% | 96.9% | 0.5 µg/mL (≈ 1.03 µM) | have an activity to inhibit the reaction of proliferation of the T cells | 42 µg/mL (≈ 86.5 µM) | 3.1 µg/mL (≈ 6.38 µM) | 1.9 µg/mL (≈ 3.91 µM) | soluble in methanol but slightly soluble or insoluble in water, acetone, ethyl ether and n-hexane | barely soluble in water | hardly absorbed into the digestive tracts | inhibition at 1.56 µg/mL [2, 25]: 75%; inhibition at 1.56 µg/mL ([3]; 1.56 μg/ml test compound): 89%; IC50 [7]: 7.4 µg/mL (≈ 15.2 µM); IC50 [8]: 1.2 µg/mL (≈ 2.47 µM); MIC [9]: > 100 µg/mL; MIC [10]: > 100 µg/mL; MIC [11]: > 100 µg/mL; MIC [12]: > 100 µg/mL; MIC [13]: > 100 µg/mL; MIC [14]: > 100 µg/mL; MIC [15]: > 100 µg/mL; MIC [16]: > 100 µg/mL; MIC [17]: > 100 µg/mL; MIC [18]: > 50 µg/mL; MIC [19]: > 100 µg/mL; MIC [20]: > 100 µg/mL; MIC [21]: > 100 µg/mL; antibacterial activity to Gram-positive bacteria [24]: antibacterial activity to Gram-positive bacteria
